Assays:
[1] = target: T1, 37 kDa laminin receptor precursor (37LRP/67LR) (Homo sapiens, UniProt P08865); assay: ELISA-type inhibition of r37LRP binding to immobilized laminin at […]; assay type: biochemical
T1 construct: gene RPSA

[2] = target: T1, 37 kDa laminin receptor precursor (37LRP/67LR); assay: ELISA-type inhibition of r37LRP binding to immobilized laminin (and YIGSR)

Row | Compound | ELISA-type inhibition of r37LRP binding to immobilized laminin at 50 μM [1] | IC50 [2]
1 | Oc1ccc2ccccc2c1CNc1ccc(Cl)cc1 [compound 52, 1-((4-chloroanilino)methyl)-2-naphthol] | NSC47923, NSC48478, NSC48861 and NSC48869 were active to the same extent as NSC47924, by in vitro binding assays | 
2 | COc1ccc(NCc2c(O)ccc3ccccc23)cc1 [compound 13, 1-((4-methoxyanilino)methyl)-2-naphthol] |  | 58.9 µM
3 | Cc1ccc(N(Cc2c(O)ccc3ccccc23)Cc2c(O)ccc3ccccc23)cc1 [compound 61, 1-((((2-hydroxy-1-naphthyl)methyl)-4-methylanilino)methyl)-2-naphthol] | NSC47923, NSC48478, NSC48861 and NSC48869 were active to the same extent as NSC47924, by in vitro binding assays | 
4 | Oc1ccc2ccccc2c1CN(Cc1c(O)ccc2ccccc12)c1ccccc1 [compound 60, 1-((((2-hydroxy-1-naphthyl)methyl)anilino)methyl)-2-naphthol] | NSC47923, NSC48478, NSC48861 and NSC48869 were active to the same extent as NSC47924, by in vitro binding assays | 
5 | Cc1ccc(NCc2c(O)ccc3ccccc23)cc1 [compound 50, 1-(4-toluidinomethyl)-2-naphthol] | NSC47923, NSC48478, NSC48861 and NSC48869 were active to the same extent as NSC47924, by in vitro binding assays | 
